Measurements published in PMC7844219, “Antifibrotic effect of novel neutrophil gelatinase-associated lipocalin inhibitors in cardiac and renal disease models” (Scientific Reports, 2021).

How the values were obtained:
[1] = target: T1, hNGAL (Homo sapiens, UniProt P80188); experiment: hNGAL-induced intracellular profibrotic protein levels in human cardiac fibroblasts (Western blot); format: cell-based; parameters: % inhibition versus hNGAL on Col I protein level / % inhibition versus hNGAL on Col III protein level / % inhibition versus hNGAL on Fibronectin protein level / % inhibition versus hNGAL on Galectin 3 protein level: concentration or dose not given beside the values
T1 construct: purchased R&D Systems
Method: (§1) Primary human cardiac fibroblasts (HCF) were obtained from Promocell (Heidelberg, Germany) and maintained in Fibroblast Media 3 following manufacturer’s instructions (Promocell). Cells were used between passages 5 and 7. Cells were stimulated with recombinant hNGAL (500 ng/mL, R&D Systems) or with TGFβ (10 ng/mL, R&D Systems) for 24 h. To assess cell proliferation the MTT test was used following provider’s instructions (Roche). For protein analysis. Primary Mouse Kidney Fibroblasts (MKF) were isolated from Wild Type (WT) mice. Briefly, 8 weeks old mice were sacrificed by cervical dislocation and kidneys were cleaned and rinsed in cold DPBS (Dulbecco's Phosphate-Buffered Saline). The renal cortex was minced and incubated in Dulbecco’s modified eagle medium/Nutrient mixture F-12 (DMEM/F12, Sigma) containing 1 mg/mL collagenase A (Roche) during 25 min at 37 °C. The digestion was inactivated by adding culture medium (DMEM/F12 + 10% FBS) then the cell suspension was passed through a 100-μm cell strainer. After centrifugation, the pellet (containing MKF) was diluted with culture medium then plated in 75 cm^2 culture flask. After 24 h MKF were washed with DPBS before replacement of fresh culture medium. Thereafter, culture medium was changed every 48 h. Once 70–80% confluent, MKF were trypsinized and plated in 12 or 6-well plates. For experimental use, MKF were starved with culture medium containing only 3% FBS. MKF were treated with mNGAL (500 ng/mL, R&D Systems) or with TGFβ (10 ng/mL, R&D Systems) for 6 h for gene expression analysis.
Total protein aliquots of 20 μg were prepared from cardiac homogenates and HCF and electrophoresed on SDS polyacrylamide gels and transferred to Hybond-c Extra nitrocellulose membranes (Amersham Biosciences). Membranes were incubated with primary antibodies for: Collagen I (Santa Cruz; dilution 1:500), Collagen type III (Santa Cruz; dilution 1:500), fibronectin (Millipore, 1:500), Galectin-3 (Thermo, 1:1000), α-SMA (Sigma, 1:1000), CTGF (Santa Cruz, 1:200), CD68 (Abcam, 1:500), CD80 (Santa Cruz, 1:500), CD86 (Santa Cruz, 1:500). […] After densitometric analyses, optical density values were expressed as arbitrary units. Results are expressed as an n-fold increase over the values of the control group in densitometric arbitrary units.

[2] = target: T2, CYP3A4 (Homo sapiens, UniProt P08684); experiment: CYP3A4 inhibition assay (Vivid CYP3A4 assay); format: in vitro ADME
T2 construct: purchased Thermo Fisher Scientific
Method: (§2) Several parameters have been evaluated to determine ADME-Tox profile of the compounds. Two specific toxicity assays have been performed to assess hepatoxicity and cardiotoxicity. Hepatotoxicity was evaluated in isolated hepatocytes from swiss mice and determined by the thiazolyl blue tetrazolium bromide colorimetric assay (sigma, St Louis, MO, USA). Cardiotoxicity was evaluated using the commercially available Predictor hERG fluorescence polarization kit (Thermo Fisher Scientific, Illinois, USA). Several absorption, distribution, metabolism, and excretion (ADME) assays have been carried out. The following experiments were undertaken: stability in human microsomes, binding to human plasma protein, and CYP3A4 inhibition assay (Vivid CYP3A4 assay, Thermo Fisher Scientific, Illinois, USA). Physico-chemical properties were also assessed such as aqueous solubility and chemical stability.

[3] = target: T1, hNGAL; experiment: Cell proliferation (MTT) in hNGAL-treated human cardiac fibroblasts; format: cell-based
Method: as §1
Cell proliferation was assessed using the MTT Proliferation Assay (Sigma).

[4] = system: isolated hepatocytes from swiss mice; experiment: Hepatotoxicity, thiazolyl blue tetrazolium bromide (MTT) colorimetric assay; format: cell-based, mouse
Method: as §2

[5] = Aqueous solubility; format: physicochemical
Method: as §2

[6] = system: human plasma protein; experiment: Binding to human plasma protein; format: in vitro ADME
Method: as §2

[7] = target: T1, hNGAL; experiment: hNGAL-induced IL6 and Col I secretion in human cardiac fibroblasts (ELISA); format: cell-based; parameters: % inhibition versus hNGAL on IL-6 secretion: concentration or dose not given beside the values; conditions: for IL-6 secretion: hNGAL-treated human cardiac fibroblasts, mean ± SEM
Method: as §1
IL6 and collagen type I concentrations were measured in cardiac tissue and cell supernatants by ELISA according to the manufacturer's instructions (R&D Systems).

[8] = Table S2, human cardiac fibroblasts
[9] = 10 µM, human cardiac fibroblasts, Fig. 1C

T1 sequence (P80188 21-198): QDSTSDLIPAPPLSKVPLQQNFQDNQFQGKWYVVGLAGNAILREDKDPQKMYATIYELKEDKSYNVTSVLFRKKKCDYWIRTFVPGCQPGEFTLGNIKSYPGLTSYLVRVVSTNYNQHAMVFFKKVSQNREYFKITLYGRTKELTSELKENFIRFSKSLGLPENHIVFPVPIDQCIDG
T2 sequence (P08684 whole entry): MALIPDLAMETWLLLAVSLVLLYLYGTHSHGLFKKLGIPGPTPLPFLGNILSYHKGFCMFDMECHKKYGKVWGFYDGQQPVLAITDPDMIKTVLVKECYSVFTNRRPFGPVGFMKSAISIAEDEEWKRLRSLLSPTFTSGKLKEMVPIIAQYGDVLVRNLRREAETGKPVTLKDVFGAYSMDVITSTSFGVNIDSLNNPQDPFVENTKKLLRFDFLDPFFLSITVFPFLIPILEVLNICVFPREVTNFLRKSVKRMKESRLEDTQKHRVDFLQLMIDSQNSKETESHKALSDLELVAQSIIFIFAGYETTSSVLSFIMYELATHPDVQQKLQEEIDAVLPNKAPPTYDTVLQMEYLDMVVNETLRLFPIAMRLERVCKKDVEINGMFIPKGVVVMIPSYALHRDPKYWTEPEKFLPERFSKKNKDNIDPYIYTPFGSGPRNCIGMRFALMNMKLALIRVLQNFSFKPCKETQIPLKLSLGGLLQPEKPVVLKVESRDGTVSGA

CC(=O)c1cccc(S(=O)(=O)NCc2ccccc2-n2cccn2)c1 [GPZ614741]
hNGAL-induced expression of intracellular profibrotic proteins (Col I, Col III, fibronectin, Gal3), in words ([1]; 10 µM, human cardiac fibroblasts, Fig. 1D): blocked | Col III synthesis (protein level) ([1]; Table S2, hNGAL-treated human cardiac fibroblasts, Control 1.0, NGAL 1.67, mean ± SEM): 1.05 ± 0.1 | Fibronectin synthesis (protein level) ([1]; Table S2, hNGAL-treated human cardiac fibroblasts, Control 1.0, NGAL 1.8, mean ± SEM): 0.95 ± 0.2 | Col I synthesis (protein level) ([1]; Table S2, hNGAL-treated human cardiac fibroblasts, Control 1.0, NGAL 2.03, mean ± SEM): 1.09 ± 0.2 | Galectin-3 synthesis (protein level) ([1]; Table S2, hNGAL-treated human cardiac fibroblasts, Control 1.0, NGAL 2.1, mean ± SEM): 1.3 ± 0.1 | % inhibition versus hNGAL on Col I protein level [1, 8]: 46.4% | % inhibition versus hNGAL on Col III protein level [1, 8]: 37.1% | % inhibition versus hNGAL on Fibronectin protein level [1, 8]: 47.2% | % inhibition versus hNGAL on Galectin 3 protein level [1, 8]: 38.1% | Processing by CYP3A4, in words [2]: partially processed by CYP3A4 | CyP 3A4 Inhibition % (100= no inhibition) ([2]; Table S5): 72.21 ± 1.94% | hNGAL-induced cell proliferation, in words ([3]; 10 µM, Fig. 1E): blocked | Dose–response on proliferation induced by NGAL ([3]; Fig. S2): able to block the proliferative effects of NGAL at 1 and 10 µM, but not at lower concentrations | Hepatotoxicity (MTT) [4]: > 0.1 mM | Hepatotoxicity ([4]; Table S5, MTT): > 100 µM | Solubility in aqueous buffers, in words [5]: perfectly soluble | Aquous solubility % ([5]; Table S5): 100% | Plasma protein binding (PPB), in words [6]: low | hPPB% ([6]; Table S5, human plasma protein binding): 71.16% | Increase in IL6 secretion induced by NGAL ([7]; 1 µM, human cardiac fibroblasts, Fig. S3): did not prevent | NGAL-induced Col I secretion, in words [7, 9]: fully inhibited | NGAL-induced IL6 secretion, in words [7, 9]: fully inhibited | IL-6 secretion ([7]; Table S1, first generation compounds, Control 1.0 ± 0.1, NGAL 2.21 ± 0.2): 0.86 ± 0.2 | % inhibition versus hNGAL on IL-6 secretion ([7]; Table S1, first generation compounds, human cardiac fibroblasts): 61.1% | IL-6 secretion ([7]; Table S4, second generation compounds and parents, Control 1.00, NGAL 1.45): 0.59 ± 0.02 | % inhibition versus hNGAL on IL-6 secretion ([7]; Table S4, second generation compounds and parents, human cardiac fibroblasts): 59.5% | Inhibitor effect on hNGAL-induced IL6 secretion, in words ([7]; human cardiac fibroblasts, text on Tables S1 and S4): important inhibitor effect
